Species on record: Rattus norvegicus
Test: Open TG-GATES - Regimen: Single
Assay type: toxicity, organism-based, Sprague-Dawley
Set-up: regimen Single, gender Male, age 6 weeks
Conditions: in vivo, po, route gavage; for APTT / Bas / Eos / Fbg / Hb / Ht / Lym / MCH / MCHC / MCV / Mono / Neu / PT / Plat / RBC / Ret / WBC: tissue Blood; for KIDNEY_L / KIDNEY_R / KIDNEY_TOTAL: tissue Kidney; for LIVER: tissue Liver; for A/G / ALP / ALT / AST / BUN / CRE / Ca / Cl / DBIL / GLC / IP / K / LDH / Na / PL / RALB / TBIL / TC / TG / TP / gamma-GTP: tissue Plasma
[1] = 30 mg/kg, 3 h, dose level Middle
[2] = 30 mg/kg, 6 h, dose level Middle
[3] = 30 mg/kg, 9 h, dose level Middle
[4] = 30 mg/kg, 24 h, dose level Middle
[5] = 100 mg/kg, 3 h, dose level High
[6] = 100 mg/kg, 6 h, dose level High
[7] = 100 mg/kg, 9 h, dose level High
[8] = 100 mg/kg, 24 h, dose level High

CC1=C(/C=C/C(C)=C/C=C/C(C)=C/CO)C(C)(C)CCC1 [RETINOL]
TERMINAL_BW [1]: 204 g
APTT [1]: 21.5 s
Bas [1]: 0%
Eos [1]: 1.2%
Fbg [1]: 295.2 mg/dL
Hb [1]: 13.2 g/dL
Ht [1]: 38.6%
Lym [1]: 77.6%
MCH [1]: 21.6 pg
MCHC [1]: 34.1%
MCV [1]: 63.4 fL
Mono [1]: 3%
Neu [1]: 17.6%
PT [1]: 15.9 s
Plat [1]: 124.8 x10_4/uL
RBC [1]: 609.8 x10_4/ul
Ret [1]: 8.3%
WBC [1]: 84.2 x10_2/uL
KIDNEY_L [1]: 0.9 g
KIDNEY_R [1]: 0.9 g
KIDNEY_TOTAL [1]: 1.8 g
LIVER [1]: 9.3 g
A/G [1]: 1.3
ALP [1]: 1939.2 IU/L
ALT [1]: 48.2 IU/L
AST [1]: 80 IU/L
BUN [1]: 13.4 mg/dL
CRE [1]: 0.1 mg/dL
Ca [1]: 11.3 mg/dL
Cl [1]: 106.2 meq/L
DBIL [1]: 0 mg/dL
GLC [1]: 176.4 mg/dL
IP [1]: 9 mg/dL
K [1]: 4.2 meq/L
LDH [1]: 231 IU/L
Na [1]: 141.2 meq/L
PL [1]: 165.4 mg/dL
RALB [1]: 3.1 g/dL
TBIL [1]: 0.004 mg/dL
TC [1]: 83.2 mg/dL
TG [1]: 153.8 mg/dL
TP [1]: 5.7 g/dL
gamma-GTP [1]: 3.6 IU/L
TERMINAL_BW [2]: 195.5 g
APTT [2]: 21.5 s
Bas [2]: 0%
Eos [2]: 0.8%
Fbg [2]: 302.4 mg/dL
Hb [2]: 13.4 g/dL
Ht [2]: 38.7%
Lym [2]: 77.8%
MCH [2]: 21.1 pg
MCHC [2]: 34.5%
MCV [2]: 61.2 fL
Mono [2]: 2.8%
Neu [2]: 17.8%
PT [2]: 15.5 s
Plat [2]: 119.2 x10_4/uL
RBC [2]: 633.8 x10_4/ul
Ret [2]: 7.3%
WBC [2]: 101.4 x10_2/uL
KIDNEY_L [2]: 0.9 g
KIDNEY_R [2]: 0.9 g
KIDNEY_TOTAL [2]: 1.8 g
LIVER [2]: 8.2 g
A/G [2]: 1.2
ALP [2]: 1586.8 IU/L
ALT [2]: 36.2 IU/L
AST [2]: 72.2 IU/L
BUN [2]: 8.8 mg/dL
CRE [2]: 0.1 mg/dL
Ca [2]: 10.8 mg/dL
Cl [2]: 107.6 meq/L
DBIL [2]: 0.004 mg/dL
GLC [2]: 176.8 mg/dL
IP [2]: 9.8 mg/dL
K [2]: 4.4 meq/L
LDH [2]: 224.8 IU/L
Na [2]: 142 meq/L
PL [2]: 146.2 mg/dL
RALB [2]: 3.1 g/dL
TBIL [2]: 0.01 mg/dL
TC [2]: 74.6 mg/dL
TG [2]: 119.6 mg/dL
TP [2]: 5.6 g/dL
gamma-GTP [2]: 1 IU/L
TERMINAL_BW [3]: 195.6 g
APTT [3]: 21.7 s
Bas [3]: 0%
Eos [3]: 1%
Fbg [3]: 317 mg/dL
Hb [3]: 13.3 g/dL
Ht [3]: 38.5%
Lym [3]: 75.2%
MCH [3]: 21.3 pg
MCHC [3]: 34.5%
MCV [3]: 61.8 fL
Mono [3]: 2.8%
Neu [3]: 21%
PT [3]: 15.5 s
Plat [3]: 115.9 x10_4/uL
RBC [3]: 623.4 x10_4/ul
Ret [3]: 7.7%
WBC [3]: 94.3 x10_2/uL
KIDNEY_L [3]: 0.9 g
KIDNEY_R [3]: 0.9 g
KIDNEY_TOTAL [3]: 1.8 g
LIVER [3]: 8.3 g
A/G [3]: 1.3
ALP [3]: 1640.4 IU/L
ALT [3]: 33 IU/L
AST [3]: 67.4 IU/L
BUN [3]: 10 mg/dL
CRE [3]: 0.2 mg/dL
Ca [3]: 11 mg/dL
Cl [3]: 106 meq/L
DBIL [3]: 0.008 mg/dL
GLC [3]: 181 mg/dL
IP [3]: 11.1 mg/dL
K [3]: 4.2 meq/L
LDH [3]: 253.4 IU/L
Na [3]: 141.2 meq/L
PL [3]: 136 mg/dL
RALB [3]: 3.1 g/dL
TBIL [3]: 0.014 mg/dL
TC [3]: 72 mg/dL
TG [3]: 82.6 mg/dL
TP [3]: 5.5 g/dL
gamma-GTP [3]: 1 IU/L
TERMINAL_BW [4]: 208 g
APTT [4]: 21.8 s
Bas [4]: 0%
Eos [4]: 0.6%
Fbg [4]: 303.2 mg/dL
Hb [4]: 13.1 g/dL
Ht [4]: 38.6%
Lym [4]: 79.4%
MCH [4]: 21.5 pg
MCHC [4]: 34.1%
MCV [4]: 63.1 fL
Mono [4]: 3%
Neu [4]: 16.2%
PT [4]: 15.9 s
Plat [4]: 124 x10_4/uL
RBC [4]: 612.6 x10_4/ul
Ret [4]: 7.8%
WBC [4]: 76.3 x10_2/uL
KIDNEY_L [4]: 0.9 g
KIDNEY_R [4]: 0.9 g
KIDNEY_TOTAL [4]: 1.9 g
LIVER [4]: 10.1 g
A/G [4]: 1.4
ALP [4]: 1811.2 IU/L
ALT [4]: 42.6 IU/L
AST [4]: 75.8 IU/L
BUN [4]: 16.6 mg/dL
CRE [4]: 0.2 mg/dL
Ca [4]: 10.8 mg/dL
Cl [4]: 107.2 meq/L
DBIL [4]: 0.002 mg/dL
GLC [4]: 193 mg/dL
IP [4]: 7.2 mg/dL
K [4]: 4.2 meq/L
LDH [4]: 242.4 IU/L
Na [4]: 141.6 meq/L
PL [4]: 148.2 mg/dL
RALB [4]: 3.2 g/dL
TBIL [4]: 0.006 mg/dL
TC [4]: 74.2 mg/dL
TG [4]: 114 mg/dL
TP [4]: 5.6 g/dL
gamma-GTP [4]: 1.2 IU/L
TERMINAL_BW [5]: 201.1 g
APTT [5]: 21.6 s
Bas [5]: 0%
Eos [5]: 1%
Fbg [5]: 312.4 mg/dL
Hb [5]: 13.3 g/dL
Ht [5]: 38.7%
Lym [5]: 77.2%
MCH [5]: 21.4 pg
MCHC [5]: 34.5%
MCV [5]: 62 fL
Mono [5]: 2.6%
Neu [5]: 19%
PT [5]: 15.7 s
Plat [5]: 117.7 x10_4/uL
RBC [5]: 625.8 x10_4/ul
Ret [5]: 8%
WBC [5]: 79.7 x10_2/uL
KIDNEY_L [5]: 0.9 g
KIDNEY_R [5]: 0.9 g
KIDNEY_TOTAL [5]: 1.8 g
LIVER [5]: 9.1 g
A/G [5]: 1.4
ALP [5]: 1910.2 IU/L
ALT [5]: 46 IU/L
AST [5]: 77 IU/L
BUN [5]: 13.6 mg/dL
CRE [5]: 0.2 mg/dL
Ca [5]: 11 mg/dL
Cl [5]: 106.2 meq/L
DBIL [5]: 0 mg/dL
GLC [5]: 182 mg/dL
IP [5]: 9.4 mg/dL
K [5]: 4 meq/L
LDH [5]: 219.2 IU/L
Na [5]: 141.2 meq/L
PL [5]: 157.4 mg/dL
RALB [5]: 3.2 g/dL
TBIL [5]: 0.006 mg/dL
TC [5]: 77 mg/dL
TG [5]: 153 mg/dL
TP [5]: 5.6 g/dL
gamma-GTP [5]: 1.6 IU/L
TERMINAL_BW [6]: 205.2 g
APTT [6]: 20.3 s
Bas [6]: 0%
Eos [6]: 1%
Fbg [6]: 292.8 mg/dL
Hb [6]: 13.2 g/dL
Ht [6]: 38.6%
Lym [6]: 73.8%
MCH [6]: 21.1 pg
MCHC [6]: 34.2%
MCV [6]: 61.8 fL
Mono [6]: 4.8%
Neu [6]: 19.8%
PT [6]: 15 s
Plat [6]: 120.3 x10_4/uL
RBC [6]: 625.6 x10_4/ul
Ret [6]: 7.8%
WBC [6]: 110 x10_2/uL
KIDNEY_L [6]: 0.9 g
KIDNEY_R [6]: 0.9 g
KIDNEY_TOTAL [6]: 1.8 g
LIVER [6]: 9 g
A/G [6]: 1.3
ALP [6]: 1660.6 IU/L
ALT [6]: 37.6 IU/L
AST [6]: 74 IU/L
BUN [6]: 10.6 mg/dL
CRE [6]: 0.1 mg/dL
Ca [6]: 11.3 mg/dL
Cl [6]: 105.8 meq/L
DBIL [6]: 0.006 mg/dL
GLC [6]: 190.4 mg/dL
IP [6]: 10.6 mg/dL
K [6]: 4.3 meq/L
LDH [6]: 212.4 IU/L
Na [6]: 141.8 meq/L
PL [6]: 147.8 mg/dL
RALB [6]: 3.1 g/dL
TBIL [6]: 0.016 mg/dL
TC [6]: 71.8 mg/dL
TG [6]: 118 mg/dL
TP [6]: 5.4 g/dL
gamma-GTP [6]: 1 IU/L
TERMINAL_BW [7]: 198.4 g
APTT [7]: 21.5 s
Bas [7]: 0%
Eos [7]: 0.8%
Fbg [7]: 288.4 mg/dL
Hb [7]: 12.8 g/dL
Ht [7]: 36.9%
Lym [7]: 72.4%
MCH [7]: 21.3 pg
MCHC [7]: 34.7%
MCV [7]: 61.4 fL
Mono [7]: 3.2%
Neu [7]: 22.6%
PT [7]: 15.5 s
Plat [7]: 124.3 x10_4/uL
RBC [7]: 601 x10_4/ul
Ret [7]: 7.6%
WBC [7]: 96.3 x10_2/uL
KIDNEY_L [7]: 0.9 g
KIDNEY_R [7]: 0.9 g
KIDNEY_TOTAL [7]: 1.9 g
LIVER [7]: 8.8 g
A/G [7]: 1.4
ALP [7]: 1745.2 IU/L
ALT [7]: 35.2 IU/L
AST [7]: 69.2 IU/L
BUN [7]: 9.6 mg/dL
CRE [7]: 0.1 mg/dL
Ca [7]: 11 mg/dL
Cl [7]: 106.4 meq/L
DBIL [7]: 0.014 mg/dL
GLC [7]: 179.6 mg/dL
IP [7]: 10.7 mg/dL
K [7]: 4.3 meq/L
LDH [7]: 219.6 IU/L
Na [7]: 141.2 meq/L
PL [7]: 129.2 mg/dL
RALB [7]: 3.1 g/dL
TBIL [7]: 0.016 mg/dL
TC [7]: 65.6 mg/dL
TG [7]: 91.2 mg/dL
TP [7]: 5.3 g/dL
gamma-GTP [7]: 1 IU/L
TERMINAL_BW [8]: 207.3 g
APTT [8]: 23.2 s
Bas [8]: 0%
Eos [8]: 0.8%
Fbg [8]: 303.6 mg/dL
Hb [8]: 13.3 g/dL
Ht [8]: 38.7%
Lym [8]: 79.2%
MCH [8]: 21.2 pg
MCHC [8]: 34.3%
MCV [8]: 61.9 fL
Mono [8]: 2.2%
Neu [8]: 16.8%
PT [8]: 16 s
Plat [8]: 117.6 x10_4/uL
RBC [8]: 627 x10_4/ul
Ret [8]: 7.3%
WBC [8]: 93.1 x10_2/uL
KIDNEY_L [8]: 0.9 g
KIDNEY_R [8]: 0.9 g
KIDNEY_TOTAL [8]: 1.8 g
LIVER [8]: 9.6 g
A/G [8]: 1.2
ALP [8]: 1815.8 IU/L
ALT [8]: 47.2 IU/L
AST [8]: 79 IU/L
BUN [8]: 14.2 mg/dL
CRE [8]: 0.2 mg/dL
Ca [8]: 10.8 mg/dL
Cl [8]: 106.2 meq/L
DBIL [8]: 0.004 mg/dL
GLC [8]: 193.4 mg/dL
IP [8]: 7.4 mg/dL
K [8]: 4 meq/L
LDH [8]: 242.4 IU/L
Na [8]: 140.2 meq/L
PL [8]: 144 mg/dL
RALB [8]: 3 g/dL
TBIL [8]: 0.006 mg/dL
TC [8]: 68.8 mg/dL
TG [8]: 155.2 mg/dL
TP [8]: 5.5 g/dL
gamma-GTP [8]: 1.8 IU/L

Source: ChEMBL document CHEMBL3885861, “Open TG-GATES”
